What was measured:
Type in all cases: functional
Rattus norvegicus [1] = test: Percent reduction in swelling of the left hind paw in rat when 40 mg/kg of dose was injected perorally which was determined in adjuvant arthritis test; conditions: route oral
Rattus norvegicus [2] = test: Minimum ulcerogenic dose was evaluated 24 hours after peroral administration; value may range from 12.5-25
Rattus norvegicus [3] = species: Rattus norvegicus; test: Activity relative to fenclofenac determined in adjuvant arthritis test
Rattus norvegicus [4] = test: Percent reduction in swelling of the left hind paw in rat when 10 mg/kg of dose was injected perorally which was determined in adjuvant arthritis test; conditions: route oral
Rattus norvegicus [5] = test: Minimum ulcerogenic dose was evaluated 24 hours after peroral administration; value may range from 100-200
Rattus norvegicus [6] = test: Percent reduction in swelling of the left hind paw in rat when 20 mg/kg of dose was injected perorally which was determined in adjuvant arthritis test; conditions: route oral
Rattus norvegicus [7] = test: Minimum ulcerogenic dose was evaluated 24 hours after peroral administration; value may range from 60-120
Rattus norvegicus [8] = test: Percent reduction in swelling of the left hind paw in rat determined in adjuvant arthritis test, 25 mg/kg dose was perorally; conditions: route oral
Rattus norvegicus [9] = test: Percent reduction in swelling of the left hind paw in rat when 2 mg/kg of dose was injected perorally which was determined in adjuvant arthritis test; conditions: route oral
Rattus norvegicus [10] = test: Minimum ulcerogenic dose was evaluated 24 hours after peroral administration; value may range from 50-80
Rattus norvegicus [11] = test: Percent reduction in swelling of the left hind paw in rat when 35 mg/kg of dose was injected perorally which was determined in adjuvant arthritis test; conditions: route oral

Work on `Cc1ccc2c(c1)CCNc1cc(C)cc(Cl)c1O2` yielded a Reduction (Rattus norvegicus [1]) of 19%.
With `Nc1cc(Cl)cc(Cl)c1Oc1ccccc1CC(=O)O` the MUD (Rattus norvegicus [2]) was 12.5 mg/kg, the Relative potency (Rattus norvegicus [3]) was 6.8 and the Reduction (Rattus norvegicus [4]) was 41%.
Compound `Cc1cccc(N(C)C)c1Oc1ccccc1CC(=O)O` has a Relative potency (Rattus norvegicus [3]) of 2.1, an MUD (Rattus norvegicus [5]) of 100 mg/kg and a Reduction (Rattus norvegicus [6]) of 38%.
With `Cc1c(N)c(Oc2ccccc2CC(=O)O)c(Cl)c(C)c1Cl` the MUD (Rattus norvegicus [7]) was 60 mg/kg and the Reduction (Rattus norvegicus [8]) was 4%.
`CNc1cc(Cl)cc(Cl)c1Oc1ccccc1CC(=O)O` gave a Relative potency (Rattus norvegicus [3]) of 13 and a Reduction (Rattus norvegicus [9]) of 22%.
`COC(=O)Cc1ccccc1Oc1c(N)cc(Cl)cc1Cl` was tested, and the MUD (Rattus norvegicus [10]) was 50 mg/kg, the Relative potency (Rattus norvegicus [3]) was 7.5 and the Reduction (Rattus norvegicus [8]) was 38%.
With `Nc1ccccc1Oc1ccccc1CC(=O)O` the Reduction (Rattus norvegicus [11]) was 2%.

— ChEMBL document CHEMBL1122891, “Substituted 5H-dibenz[b,g]-1,4-oxazocines and related amino acids with antiinflammatory activity” (1985)
